# From ChEMBL document CHEMBL1201862, “PubChem BioAssay data set” (2004)
#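 Values below derive from 48-hour exposures of cells grown in 96-well plates, with endpoints linearly interpolated between the two concentrations bracketing the appropriate inhibition level. GI50 = concentration required for 50% inhibition of growth.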 Calls of active or inactive are those of the source. No stated cut-off is given here; in the data, active = GI50 up to about 1.1 µM and inactive = higher.
# Experiments:
# Experiment in all cases: growth of human tumour cells (NCI), 48 h
# HCT-15 = test system: HCT-15
# COLO 205 = test system: COLO 205
# UACC-62 = test system: UACC-62
# ACHN = test system: ACHN
# TK-10 = test system: TK-10
# CCRF-CEM = test system: CCRF-CEM
# SF-539 = test system: SF-539
# M14 = test system: M14
# SNB-19 = test system: SNB-19
# SF-268 = test system: SF-268
# HCC 2998 = test system: HCC 2998
# NCI-H226 = test system: NCI-H226
# HOP-18 = test system: HOP-18
# SW-620 = test system: SW-620
# KM12 = test system: KM12
# SNB-78 = test system: SNB-78
# SK-MEL-5 = test system: SK-MEL-5
# NCI-H460 = test system: NCI-H460
# KM-20L2 = test system: KM-20L2
# NCI-H23 = test system: NCI-H23
# SK-OV-3 = test system: SK-OV-3
# HT-29 = test system: HT-29
# NCI-H522 = test system: NCI-H522
# OVCAR-5 = test system: OVCAR-5
# IGROV-1 = test system: IGROV-1
# OVCAR-4 = test system: OVCAR-4
# DMS-273 = test system: DMS-273
# HOP-92 = test system: HOP-92
# SK-MEL-2 = test system: SK-MEL-2
# 786-0 = test system: 786-0
# RXF 393 = test system: RXF 393
# SF-295 = test system: SF-295
# SNB-75 = test system: SNB-75
# EKVX = test system: EKVX
# LOX IMVI = test system: LOX IMVI
# UACC-257 = test system: UACC-257
# MOLT-4 = test system: MOLT-4
# M19-MEL = test system: M19-MEL
# U-251 = test system: U-251
# HOP-62 = test system: HOP-62
# OVCAR-8 = test system: OVCAR-8
# Malme-3M = test system: Malme-3M
# HCT-116 = test system: HCT-116
# UO-31 = test system: UO-31
# K562 = test system: K562
# CAKI-1 = test system: CAKI-1
# RPMI-8226 = test system: RPMI-8226
# LXFL 529 = test system: LXFL 529
# SN12C = test system: SN12C
# A549 = test system: A549
# XF498 = test system: XF498
# OVCAR-3 = test system: OVCAR-3
# SR = test system: SR
# MDA-MB-435 = test system: MDA-MB-435
# SK-MEL-28 = test system: SK-MEL-28
# DMS-114 = test system: DMS-114
# NCI/ADR-RES = test system: NCI/ADR-RES
# T47D = test system: T47D
# MDA-MB-231 = test system: MDA-MB-231
# DU-145 = test system: DU-145
# Hs-578T = test system: Hs-578T
# BT-549 = test system: BT-549
# DLD-1 = test system: DLD-1
# PC-3 = test system: PC-3
# HL-60 = test system: HL-60
# MCF7 = test system: MCF7
# A498 = test system: A498
# MDA-N = test system: MDA-N
compound,measurement,setting,value
CC1OC(=O)C(O)=C1O (configuration not stated),GI50,HCT-15,> 100 µM
same,GI50,COLO 205,> 100 µM (inactive)
same,GI50,UACC-62,> 100 µM (inactive)
same,GI50,ACHN,> 100 µM (inactive)
same,GI50,TK-10,> 100 µM (inactive)
same,GI50,CCRF-CEM,> 100 µM (inactive)
same,GI50,SF-539,> 100 µM (inactive)
same,GI50,M14,> 100 µM (inactive)
same,GI50,SNB-19,> 100 µM (inactive)
same,GI50,SF-268,47.2 µM (inactive)
same,GI50,HCC 2998,> 100 µM (inactive)
same,GI50,NCI-H226,> 100 µM (inactive)
same,GI50,HOP-18,> 100 µM (inactive)
same,GI50,SW-620,> 100 µM (inactive)
same,GI50,KM12,> 100 µM (inactive)
same,GI50,SNB-78,> 100 µM (inactive)
same,GI50,SK-MEL-5,> 100 µM (inactive)
same,GI50,NCI-H460,> 100 µM (inactive)
same,GI50,KM-20L2,> 100 µM (inactive)
same,GI50,NCI-H23,> 100 µM (inactive)
same,GI50,SK-OV-3,> 100 µM (inactive)
same,GI50,HT-29,> 100 µM (inactive)
same,GI50,NCI-H522,> 100 µM (inactive)
same,GI50,OVCAR-5,> 100 µM (inactive)
same,GI50,IGROV-1,> 100 µM (inactive)
same,GI50,OVCAR-4,> 100 µM (inactive)
same,GI50,DMS-273,> 100 µM (inactive)
same,GI50,HOP-92,> 100 µM (inactive)
same,GI50,SK-MEL-2,> 100 µM (inactive)
same,GI50,786-0,> 100 µM (inactive)
same,GI50,RXF 393,> 100 µM (inactive)
same,GI50,SF-295,> 100 µM (inactive)
same,GI50,SNB-75,> 100 µM (inactive)
same,GI50,EKVX,> 100 µM (inactive)
same,GI50,LOX IMVI,> 100 µM (inactive)
same,GI50,UACC-257,> 100 µM (inactive)
same,GI50,MOLT-4,> 100 µM (inactive)
same,GI50,M19-MEL,> 100 µM (inactive)
same,GI50,U-251,> 100 µM (inactive)
same,GI50,HOP-62,> 100 µM (inactive)
same,GI50,OVCAR-8,> 100 µM (inactive)
same,GI50,Malme-3M,> 100 µM (inactive)
same,GI50,HCT-116,> 100 µM (inactive)
same,GI50,UO-31,> 100 µM (inactive)
same,GI50,K562,> 100 µM (inactive)
same,GI50,CAKI-1,> 100 µM (inactive)
same,GI50,RPMI-8226,> 100 µM (inactive)
same,GI50,LXFL 529,> 100 µM (inactive)
same,GI50,SN12C,> 100 µM (inactive)
same,GI50,A549,> 100 µM (inactive)
same,GI50,XF498,> 100 µM (inactive)
same,GI50,OVCAR-3,> 100 µM (inactive)
same,GI50,SR,> 100 µM (inactive)
COc1ccc(/C=c2/s/c(=C(\C#N)c3nc4ccccc4[nH]3)n(-c3ccccc3)c2=O)cc1,GI50,HCT-15,> 53.6 µM
same,GI50,COLO 205,36.2 µM (inactive)
same,GI50,UACC-62,> 28.3 µM (inactive)
same,GI50,ACHN,> 82.4 µM (inactive)
same,GI50,TK-10,> 52.7 µM (inactive)
same,GI50,CCRF-CEM,> 100 µM (inactive)
same,GI50,MDA-MB-435,31.8 µM (inactive)
same,GI50,SF-539,25.1 µM (inactive)
same,GI50,SK-MEL-28,48.2 µM (inactive)
same,GI50,M14,> 56.9 µM (inactive)
same,GI50,SNB-19,47.1 µM (inactive)
same,GI50,SF-268,31.7 µM (inactive)
same,GI50,HCC 2998,> 82.8 µM (inactive)
same,GI50,NCI-H226,16.9 µM (inactive)
same,GI50,DMS-114,91 µM (inactive)
same,GI50,HOP-18,25 µM (inactive)
same,GI50,SW-620,25.2 µM (inactive)
same,GI50,KM12,56.6 µM (inactive)
same,GI50,NCI/ADR-RES,5.06 µM (inactive)
same,GI50,T47D,> 100 µM (inactive)
same,GI50,SK-MEL-5,> 92.7 µM (inactive)
same,GI50,NCI-H460,9.75 µM (inactive)
same,GI50,KM-20L2,> 100 µM (inactive)
same,GI50,MDA-MB-231,18.7 µM (inactive)
same,GI50,NCI-H23,22.6 µM (inactive)
same,GI50,SK-OV-3,2.96 µM (inactive)
same,GI50,HT-29,6.12 µM (inactive)
same,GI50,NCI-H522,> 60.3 µM (inactive)
same,GI50,OVCAR-5,> 100 µM (inactive)
same,GI50,IGROV-1,> 54.5 µM (inactive)
same,GI50,DU-145,94.6 µM (inactive)
same,GI50,OVCAR-4,6.92 µM (inactive)
same,GI50,DMS-273,36.8 µM (inactive)
same,GI50,Hs-578T,4.45 µM (inactive)
same,GI50,HOP-92,12.6 µM (inactive)
same,GI50,SK-MEL-2,> 77.6 µM (inactive)
same,GI50,786-0,12.8 µM (inactive)
same,GI50,RXF 393,36 µM (inactive)
same,GI50,SF-295,15.3 µM (inactive)
same,GI50,SNB-75,> 26.4 µM (inactive)
same,GI50,BT-549,21 µM (inactive)
same,GI50,EKVX,> 69.3 µM (inactive)
same,GI50,LOX IMVI,36.9 µM (inactive)
same,GI50,UACC-257,> 100 µM (inactive)
same,GI50,MOLT-4,53.6 µM (inactive)
same,GI50,DLD-1,> 100 µM (inactive)
same,GI50,M19-MEL,> 100 µM (inactive)
same,GI50,U-251,48.1 µM (inactive)
same,GI50,HOP-62,17.1 µM (inactive)
same,GI50,OVCAR-8,14.6 µM (inactive)
same,GI50,PC-3,24 µM (inactive)
same,GI50,Malme-3M,> 42.4 µM (inactive)
same,GI50,HCT-116,24.7 µM (inactive)
same,GI50,UO-31,> 52.6 µM (inactive)
same,GI50,K562,> 100 µM (inactive)
same,GI50,CAKI-1,> 69.3 µM (inactive)
same,GI50,HL-60,> 100 µM (inactive)
same,GI50,RPMI-8226,> 100 µM (inactive)
same,GI50,LXFL 529,2.32 µM (inactive)
same,GI50,SN12C,> 80.2 µM (inactive)
same,GI50,A549,51.2 µM (inactive)
same,GI50,XF498,30.1 µM (inactive)
same,GI50,MCF7,45.1 µM (inactive)
same,GI50,A498,24.8 µM (inactive)
same,GI50,MDA-N,30.8 µM (inactive)
same,GI50,OVCAR-3,26.8 µM (inactive)
same,GI50,SR,> 100 µM (inactive)
CC1=NN(c2ccccc2)C(=O)C12[C@H](c1ccccc1)C2(C#N)C#N (some centres not stated),GI50,HCT-15,2.49 µM
same,GI50,COLO 205,2.29 µM (inactive)
same,GI50,UACC-62,3.44 µM (inactive)
same,GI50,ACHN,8.36 µM (inactive)
same,GI50,TK-10,12.5 µM (inactive)
same,GI50,CCRF-CEM,0.457 µM (active)
same,GI50,SF-539,14.6 µM (inactive)
same,GI50,SK-MEL-28,3.48 µM (inactive)
same,GI50,M14,1.44 µM (inactive)
same,GI50,SNB-19,15.8 µM (inactive)
same,GI50,SF-268,7.26 µM (inactive)
same,GI50,HCC 2998,18.5 µM (inactive)
same,GI50,NCI-H226,12.8 µM (inactive)
same,GI50,HOP-18,7.48 µM (inactive)
same,GI50,SW-620,1.87 µM (inactive)
same,GI50,KM12,9.64 µM (inactive)
same,GI50,SNB-78,13.8 µM (inactive)
same,GI50,SK-MEL-5,4.48 µM (inactive)
same,GI50,NCI-H460,17.5 µM (inactive)
same,GI50,KM-20L2,11.8 µM (inactive)
same,GI50,NCI-H23,2.85 µM (inactive)
same,GI50,SK-OV-3,18.6 µM (inactive)
same,GI50,HT-29,4.59 µM (inactive)
same,GI50,NCI-H522,2.88 µM (inactive)
same,GI50,OVCAR-5,11.5 µM (inactive)
same,GI50,IGROV-1,14.2 µM (inactive)
same,GI50,OVCAR-4,5.46 µM (inactive)
same,GI50,DMS-273,2.67 µM (inactive)
same,GI50,HOP-92,2.64 µM (inactive)
same,GI50,SK-MEL-2,6.43 µM (inactive)
same,GI50,786-0,2.41 µM (inactive)
same,GI50,RXF 393,5.19 µM (inactive)
same,GI50,SF-295,12.9 µM (inactive)
same,GI50,SNB-75,6.11 µM (inactive)
same,GI50,EKVX,18.3 µM (inactive)
same,GI50,LOX IMVI,1.78 µM (inactive)
same,GI50,UACC-257,5.96 µM (inactive)
same,GI50,MOLT-4,0.679 µM (active)
same,GI50,DLD-1,2 µM (inactive)
same,GI50,M19-MEL,2.51 µM (inactive)
same,GI50,U-251,15.4 µM (inactive)
same,GI50,HOP-62,17.3 µM (inactive)
same,GI50,OVCAR-8,2.84 µM (inactive)
same,GI50,Malme-3M,4.68 µM (inactive)
same,GI50,HCT-116,3.21 µM (inactive)
same,GI50,UO-31,14.7 µM (inactive)
same,GI50,K562,1.85 µM (inactive)
same,GI50,CAKI-1,6.41 µM (inactive)
same,GI50,HL-60,2.55 µM (inactive)
same,GI50,RPMI-8226,1.91 µM (inactive)
same,GI50,LXFL 529,1.96 µM (inactive)
same,GI50,SN12C,3.95 µM (inactive)
same,GI50,A549,16.3 µM (inactive)
same,GI50,XF498,3.4 µM (inactive)
same,GI50,A498,16.9 µM (inactive)
same,GI50,OVCAR-3,7.03 µM (inactive)
same,GI50,SR,1.91 µM (inactive)
